Measurements reported in patent US8183263B2 (priority 2007, dated 2012).

What follows are molecules tested on HCV replicon (assay: HCV replicon replication assay (NPT level by captured ELISA)). Details: Hepatitis C virus, 72 h; Huh-7 HCV replicon-containing cells, three days incubation; read-out: Activity (inhibition of HCV replicon replication).
Assay type: cell-based
Procedure, shortened: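 Huh-7 cells carrying HCV subgenomic replicon (NS3–NS5B, neo reporter) treated 3 days at 37 °C with 6 concentrations from 10 to 0.03 micromolar in G418-free medium, equal DMSO across wells. Replication measured on day four as NPTII level by in-cell captured ELISA on fixed cells; interferon alpha as positive control.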

Row | SMILES | EC50
1 | COc1ncc(-c2csc(Nc3ccc(Oc4ccc(Cl)cc4)c(C(F)(F)F)c3)n2)cn1 [Cmp 54, N-(4-(4-chlorophenoxy)-3-(trifluoromethyl)phenyl)-4-(2-methoxypyrimidin-5-yl)thiazol-2-amine] | < 1000 nM
2 | COc1ncc(-c2nc(Nc3ccc(Oc4ccccc4)c(C(F)(F)F)c3)sc2F)cn1 [Cmp 95, 5-fluoro-4-(2-methoxypyrimidin-5-yl)-N-(4-phenoxy-3-(trifluoromethyl)phenyl)thiazol-2-amine] | 1000 to 10000 nM
3 | Fc1sc(Nc2ccc(CCCCOc3ccccc3)c(C(F)(F)F)c2)nc1-c1cccnc1 [Cmp 136, 5-fluoro-N-(4-(4-phenoxybutyl)-3-(trifluoromethyl)phenyl)-4-(pyridin-3-yl)thiazo1-2-amine] | < 1000 nM
4 | CCCCCc1nc2ccc(Nc3nc(-c4cccnc4)cs3)cc2o1 [Cmp 66, 2-pentyl-N-(4-(pyridin-3-yl)thiazol-2-yl)benzo[d]oxazol-6-amine] | < 1000 nM
5 | CCCCCCC[C@@H](C)Oc1ccc(Nc2nc(-c3cccnc3)c(F)s2)cc1C(F)(F)F [Cmp 233, (R)-5-fluoro-N-(4-(nonan-2-yloxy)-3-(trifluoromethyl)phenyl)-4-(pyridin-3-yl)thiazol-2-amine] | < 1000 nM
6 | CCCCCCCCOc1cc(Nc2nc(-c3cccnc3)c(F)s2)ccc1C(F)(F)F [Cmp 78, 5-fluoro-N-(3-(octyloxy)-4-(trifluoromethyl)phenyl)-4-(pyridin-3-yl)thiazol-2-amine] | < 1000 nM
7 | CCCCCCCS(=O)(=O)CCc1ccc(Nc2nc(-c3cccnc3)cs2)cc1 [Cmp 20, N-(4-(2-(heptylsulfonyl)ethyl)phenyl)-4-(pyridin-3-yl)thiazol-2-amine] | 1000 to 10000 nM
8 | CCCCCCCCOc1ccc(Nc2nc(-c3ccsc3C(N)=O)c(F)s2)cc1C(F)(F)F [Cmp 188, 3-(5-fluoro-2-(4-(octyloxy)-3-(trifluoromethyl)phenylamino)thiazol-4-yl)thiophene-2-carboxamide] | < 1000 nM
9 | CCCCCCC[C@H](C)Oc1ccc(Nc2nc(-c3cccnc3)c(F)s2)cc1C(F)(F)F [Cmp 232, (S)-5-fluoro-N-(4-(nonan-2-yloxy)-3-(trifluoromethyl)phenyl)-4-(pyridin-3-yl)thiazol-2-amine] | < 1000 nM
10 | Fc1sc(Nc2ccc(OCCCCc3cccs3)c(C(F)(F)F)c2)nc1-c1cccnc1 [Cmp 90, 5-fluoro-4-(pyridin-3-yl)-N-(4-(4-(thiophen-2-yl)butoxy)-3-(trifluoromethyl)phenyl)thiazol-2-amine] | < 1000 nM
11 | CCCCCCCCc1oc2ccc(Nc3nc(-c4cccnc4)cs3)cc2c1Cl [Cmp 183, N-(3-chloro-2-octylbenzofuran-5-yl)-4-(pyridin-3-yl)thiazol-2-amine] | < 1000 nM
12 | CCCCCCCCc1cc2ccc(Nc3nc(-c4cccnc4)c(F)s3)cc2o1 [Cmp 133, 5-fluoro-N-(2-octylbenzofuran-6-yl)-4-(pyridin-3-yl)thiazol-2-amine] | < 1000 nM
13 | CCCCCCCCOc1ccc(Nc2nc(-c3ccc4nncn4c3)c(F)s2)cc1C(F)(F)F [Cmp 214, 4-([1,2,4]triazolo[4,3-a]pyridin-6-yl)-5-fluoro-N-(4-(octyloxy)-3-(trifluoromethyl)phenyl)thiazol-2-amine] | < 1000 nM
14 | FC(F)(F)c1cc(Nc2nc(-c3cccnc3)cs2)ccc1OCCCCc1cnc2ccccc2c1 [Cmp 145, 4-(pyridin-3-yl)-N-(4-(4-(quinolin-3-yl)butoxy)-3-(trifluoromethyl)phenyl)thiazol-2-amine] | < 1000 nM
15 | Cc1ccc(Nc2nc(-c3ccc(F)cc3)cs2)cc1OCCOc1ccccc1 [Cmp 41] | < 1000 nM
16 | CCCCCCCCOc1ccc(Nc2nc(-c3cccnc3)cs2)cc1C(C)=O [Cmp 140, 1-(2-(octyloxy)-5-(4-(pyridin-3-yl)thiazol-2-ylamino)phenyl)ethanone] | < 1000 nM

Row | SMILES | EC50
17 | CCc1ccc(Oc2ccc(Nc3nc(-c4cnc(OC)nc4)cs3)cc2C(C)=O)cc1 [Cmp 87, 1-(2-(4-ethylphenoxy)-5-(4-(2-methoxypyrimidin-5-yl)thiazol-2-ylamino)phenyl)ethanone] | < 1000 nM
18 | CCc1ccc(Oc2ccc(Nc3nc(-c4cccnc4)cs3)cc2C(F)(F)F)cc1 [Cmp 49, N-(4-(4-ethylphenoxy)-3-(trifluoromethyl)phenyl)-4-(pyridin-3-yl)thiazol-2-amine] | < 1000 nM
19 | COc1ncc(-c2csc(Nc3ccc(CCCCCc4ccc(C)cc4)c(C(F)(F)F)c3)n2)cn1 [Cmp 74, 4-(2-methoxypyrimidin-5-yl)-N-(4-(5-p-tolylpentyl)-3-(trifluoromethyl)phenyl)thiazol-2-amine] | < 1000 nM
20 | C/C=N/N(c1ccc(OCCCCCCCC)c(C(F)(F)F)c1)c1nc(-c2cccnc2)cs1 [Cmp 33, (E)-2-(2-ethylidene-1-(4-(octyloxy)-3-(trifluoromethyl)phenyl)hydrazinyl)-4-(pyridin-3-yl)thiazole] | < 1000 nM
21 | CCCCCOc1cc(Nc2nc(-c3cccnc3)c(F)s2)ccc1C#N [Cmp 30, -(5-fluoro-4-(pyridin-3-yl)thiazol-2-ylamino)-2-(pentyloxy)benzonitrile] | < 1000 nM
22 | Fc1sc(Nc2ccc(OC3Cc4ccccc4C3)c(C(F)(F)F)c2)nc1-c1cccnc1 [Cmp 176, N-(4-(2,3-dihydro-1H-inden-2-yloxy)-3-(trifluoromethyl)phenyl)-5-fluoro-4-(pyridin-3-yl)thiazol-2-amine] | < 1000 nM
23 | Fc1ccc(CCCCCc2ccc(Nc3nc(-c4cccnc4)cs3)cc2C(F)(F)F)cc1 [Cmp 216, N-(4-(5-(4-fluorophenyl)pentyl)-3-(trifluoromethyl)phenyl)-4-(pyridin-3-yl)thiazol-2-amine] | < 1000 nM
24 | O=c1cc(-c2ccccc2)oc2ccc(Nc3nc(-c4cccnc4)cs3)cc12 [Cmp 148, 2-phenyl-6-(4-(pyridin-3-yl)thiazol-2-ylamino)-4H-chromen-4-one] | > 10000 nM
25 | CCCCCCCCOc1ccc(Nc2nc(-c3cccnc3)c(F)s2)cc1C(C)=O [Cmp 149, 1-(5-(5-fluoro-4-(pyridin-3-yl)thiazol-2-ylamino)-2-(octyloxy)phenyl)ethanone] | < 1000 nM
26 | CCCCCCc1ccc(Nc2nc(-c3cccnc3)cs2)cc1C(F)(F)F [Cmp 105, N-(4-hexyl-3-(trifluoromethyl)phenyl)-4-(pyridin-3-yl)thiazol-2-amine] | < 1000 nM
27 | CCCCCCCCOc1ccc(Nc2nc(-c3cccnc3)cs2)cc1C(N)=O [Cmp 156, 2-(octyloxy)-5-(4-(pyridin-3-yl)thiazol-2-ylamino)benzamide] | < 1000 nM
28 | CCCC/C=C\CCOc1ccc(Nc2nc(-c3cccnc3)c(F)s2)cc1C(F)(F)F [Cmp 172, (Z)-5-fluoro-N-(4-(oct-3-enyloxy)-3-(trifluoromethyl)phenyl)-4-(pyridin-3-yl)thiazol-2-amine] | < 1000 nM
29 | CN(C)c1ccc(CCCCOc2ccc(Nc3nc(-c4cccnc4)cs3)cc2C(F)(F)F)cc1 [Cmp 89, N-(4-(4-(4-(dimethylamino)phenyl)butoxy)-3-(trifluoromethyl)phenyl)-4-(pyridin-3-yl)thiazol-2-amine] | < 1000 nM
30 | CCCCCCCC(=O)c1ccc(Nc2nc(-c3cccnc3)c(F)s2)cc1C(F)(F)F [Cmp 215, 1-(4-(5-fluoro-4-(pyridin-3-yl)thiazol-2-ylamino)-2-(trifluoromethyl)phenyl)octan-1-one] | < 1000 nM
31 | CCCCCCCCOc1ccc(Nc2nc(-c3cccnc3)c(F)s2)cc1 [Cmp 141, 5-fluoro-N-(4-(octyloxy)phenyl)-4-(pyridin-3-yl)thiazol-2-amine] | < 1000 nM
